The results in this text go back to patent US20100087498A1, “USE OF BIOTIN TO PREVENT PHOTOAGING” (priority 2007, published 2010).

This test deals with MMP-1 expression in primary human dermal fibroblasts. Description: Inhibition of UV-A induced expression of matrix metalloproteinase-1 (MMP-1 RNA, real time PCR) in skin fibroblasts. The following applies: 30 J/cm^2 UVA1; for MMP-1 expression relative to UV-A only treated cells / reduction of UV-A induced MMP-1 expression: primary human dermal fibroblasts; for MMP-1 expression relative to UV-A only treated cells: 48 h preincubation, 24 hrs after irradiation; for reduction of UV-A induced MMP-1 expression: concentrations as in Table 1. It is filed as cell-based. On the procedure: Primary human dermal fibroblasts were cultured in EMEM without glutamine (Earle's Minimum Essential Medium), supplemented with antibiotics/antimycotics, 2 mM L-glutamine and 7.5% fetal calf serum at 37° C./5% CO2 and grown to 100% confluency. Forty-eight hours prior to irradiation the cells were preincubated with the desired substances in EMEM (with AB/AM, L-Glutamine and 2% FCS. After 24 hours the medium was replaced by fresh medium with substances (freshly prepared). For irradiation, the medium was removed and after 6 wash steps with phosphate-buffered saline (PBS) replaced by phosphate-buffered saline (PBS). The plate was then exposed to 30 J/cm^2 UVA1. The UVA1 output was approximately 150 mW/cm^2. After irradiation the phosphate-buffered saline in the cell microplate was exchanged against culture medium (+7.5% FCS) with the substances (fresh prepared) and the cells were incubated in a CO2-incubator for further 24 hrs (MMP-1 determination). The culture medium was removed, the cells were rinsed with phosphate-buffered saline and the whole plate was frozen in liquid nitrogen. Total RNA was isolated using RNeasy Total RNA Kits (Qiagen, Hilden; Germany). The RNA concentration was determined via photometric measurement at 260/280. Aliquots of total RNA (75 ng) were applied for cDNA-Synthesis using Superscript™III First-Strand synthesis system for RT-PCR. Two samples for each compound were analyzed. The PCR reactions were carried out on an Opticon 1 (MJ Research, Waltham, Mass., USA) using SYBR Green® PCR Master Mix (Applied Biosystems, Darmstadt, Germany). For comparison of relative expression in real time PCR control cells and treated cells the 2 ^(-delta delta C(T)) method was used.
On the technique in general: In qPCR the cycle at which signal appears reflects the starting amount.

Where [1] appears, read: EGCG 9 μmol/L, Biotin 0.03 μmol/L.

The term inhibition denotes the share of the control response that was lost under treatment. A lower inhibition goes with little suppression. As for `O=C(O)CCCC[C@@H]1SC[C@@H]2NC(=O)N[C@@H]21` [Biotin], the “reduction of UV-A induced MMP-1 expression” value came out at 66%. The inhibition at 0.03 µM (Homo sapiens, Fibroblast, light or radiation study, inhibition of UV-A induced MMP-1 expression, EGCG 9 μmol/L, Biotin 0.03 μmol/L) is 66%. In addition, the “MMP-1 expression relative to UV-A only treated cells” value under setting [1] was 35%.

The term % inhibition denotes the drop in the measured response relative to a control, in per cent. Read a low % inhibition as little suppression. Turning to (-)-epigallocatechin gallate [EGCG], the “reduction of UV-A induced MMP-1 expression” value is 13%. Also, under “inhibition of UV-A induced MMP-1 expression, EGCG 9 μmol/L, Biotin 0.03 μmol/L”, the “% inhibition” value is 13%. Further, under setting [1], the “MMP-1 expression relative to UV-A only treated cells” value was determined as 87%.
